Data taken from PMC9502272, “A Metabolomics Approach for Predicting OATP1B-Type Transporter-Mediated Drug–Drug Interaction Liabilities” (Pharmaceutics, 2022).
Several values for one entry are separate records, joined by “and”; a condition that tells them apart may be missing. Identical values can stand only once.

Legend:
Oatp1a/1b = experiment: Baseline plasma biomarker levels in Oatp1a/1b(−/−) cluster-knockout vs wild-type mice; type: in vivo, mouse; details: n = 6–10 per group
Description: (§1) Plasma concentrations of levels of CDCA-24G and glycochenodeoxycholate-3-sulfate (GCDCA-S) were determined using LC-MS/MS using a Vanquish UHPLC coupled with a Quantiva triple quadrupole mass spectrometer (Thermo Fisher Scientific, Waltham, MA, USA). An Accucore aQ column (50 × 2.1 mm, dp = 2.6 μm; Thermo Fisher Scientific) was protected by a C18 AQUASIL guard cartridge (2.1 mm × 10 mm, dp = 3 μm; Thermo Fisher Scientific). The injection volume of sample was 5.0 μL. The temperature of the autosampler rack was 4 °C, and the temperature of the column was maintained at 20 °C. The mobile phase was composed of solvent A (2 mmol ammonium acetate in water) and solvent B (100% methanol), and the total run time was 4.6 min. The gradient conditions were as follows: 0–0.5 min, 45% B; 0.5–2.0 min, 45 to 90%, 2.0–4.0 min, 90% B; 4.0–4.6 min, 45% B, delivered at a flow rate of 0.4 mL/min. The MS assay setting with the positive voltage applied to the ESI capillary was set at 3791 V, and the capillary temperatures was 335 °C with a vaporizer temperature of 350 °C. Argon was used as the collision gas at a pressure of 1.5 mTorr. Precursor molecular ions, and product ions were recorded for the confirmation and detection of GCDCA-S (528.4 > 448.3) and CDCA-24G (567.4 > 391.1), using [^2H5]-GCDCA-S (535.5 > 453.3) and [^2H5]-CDCA-24G (572.5 > 396.1) as respective internal standards. The lower limit of quantitation (LLOQ) for both analytes was determined to be 0.5 ng/mL. […]
Plasma concentrations of coproporphyrin I (CP-I) and III (CP-III) were determined similarly by LC-MS/MS. […] Precursor molecular ions and product ions were recorded for confirmation and detection of CP-I (655.4 > 596.4) and CP-III (655.4 > 596.3), using [^2H4]-CP-III (659.4 > 600.3) as the internal standard for both analytes. The LLOQ for both analytes were determined to be 1 ng/mL, and the within-run and between-run precisions as well as the accuracy were always within acceptable limits.

human OATP1B1 = experiment: Baseline plasma CDCA-24G in Oatp1a/1b(−/−) mice with transgenic hepatic expression of OATP1B1 (OATP1B1(tg)); type: in vivo, mouse; details: range stated jointly for OATP1B1(tg) and OATP1B3(tg)
Description: as §1, with “The MS assay setting with the positive voltage applied to the ESI capillary was set at 3791 V, and the capillary temperatures was 335 °C with a vaporizer temperature of 350 °C. Argon was used as the collision gas at a pressure of 1.5 mTorr.” left out

Oatp1b2 [1] = molecular target: T1, Oatp1b2 (Mus musculus, UniProt Q9JJL3); experiment: Untargeted metabolomics of plasma from untreated wild-type and Oatp1b2(−/−) mice
T1 sequence (Q9JJL3 1-689): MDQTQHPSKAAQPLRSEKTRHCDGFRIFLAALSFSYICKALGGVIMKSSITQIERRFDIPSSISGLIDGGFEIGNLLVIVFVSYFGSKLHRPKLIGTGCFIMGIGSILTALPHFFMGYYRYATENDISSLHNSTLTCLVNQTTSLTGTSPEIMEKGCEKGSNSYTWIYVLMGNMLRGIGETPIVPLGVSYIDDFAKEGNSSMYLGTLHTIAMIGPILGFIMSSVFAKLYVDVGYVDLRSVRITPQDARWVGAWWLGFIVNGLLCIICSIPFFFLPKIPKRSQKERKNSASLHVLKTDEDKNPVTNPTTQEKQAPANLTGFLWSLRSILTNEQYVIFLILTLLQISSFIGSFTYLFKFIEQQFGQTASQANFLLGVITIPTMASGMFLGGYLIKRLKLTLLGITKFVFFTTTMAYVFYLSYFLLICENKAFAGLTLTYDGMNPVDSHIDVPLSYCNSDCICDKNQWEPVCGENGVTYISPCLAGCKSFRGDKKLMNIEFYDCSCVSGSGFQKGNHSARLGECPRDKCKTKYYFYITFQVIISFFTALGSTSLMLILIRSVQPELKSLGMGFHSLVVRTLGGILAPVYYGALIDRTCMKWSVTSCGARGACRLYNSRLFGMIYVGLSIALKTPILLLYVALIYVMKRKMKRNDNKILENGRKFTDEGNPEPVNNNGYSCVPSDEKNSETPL
Description: For all experiments, age- and sex-matched mice (8–12 weeks old) were used. […] Mice with a deficiency of Oatp1b2 (Oatp1b2(−/−) mice), the single murine orthologue of OATP1B1 and OATP1B3 in humans, on a DBA/1LacJ background were kindly provided by Drs. Richard B. Kim (Western University, London, Ontario, Canada) and Jeffrey L. Stock (Pfizer, Groton, CT, USA).
Plasma samples from untreated wild-type mice and Oatp1b2(−/−) mice were analyzed for structurally named and unknown molecules using a non-targeted semi-quantitative liquid chromatography-tandem mass spectrometry (LC-MS/MS) and gas chromatography-mass spectrometry platforms (Metabolon, Durham, NC, USA). Compounds were identified by comparison with library entries of purified standards or recurrent unknown entities.

Oatp1b2 [2] = molecular target: T1, Oatp1b2; experiment: Baseline plasma CDCA-24G in Oatp1b2(−/−) vs wild-type mice, validated quantitative LC-MS/MS; type: in vivo; parameters: from tissue; host or cells: living wild-type mice (DBA/1LacJ or FVB background); hepatic transporter in vivo; details: untreated, n = 6 per group
Description: as §1, with “The MS assay setting with the positive voltage applied to the ESI capillary was set at 3791 V, and the capillary temperatures was 335 °C with a vaporizer temperature of 350 °C. Argon was used as the collision gas at a pressure of 1.5 mTorr.” left out

C[C@H](CCC(=O)O[C@@H]1O[C@H](C(=O)O)[C@@H](O)[C@H](O)[C@H]1O)[C@H]1CC[C@H]2[C@@H]3[C@H](O)C[C@@H]4C[C@H](O)CC[C@]4(C)[C@H]3CC[C@]12C [CDCA-24G, chenodeoxycholate-24-glucuronide]
Plasma concentration of CDCA-24G in Oatp1a/1b(−/−) mice relative to wild type (Oatp1a/1b): 83 fold and > 80 fold
Baseline CDCA-24G level, fold lower than in Oatp1a/1b(−/−) mice (human OATP1B1): 5- to 7 fold
Increase of plasma level in Oatp1b2(−/−) mice vs. wild-type mice (Oatp1b2 [1]; based on semi-quantitative analysis): ≈ 98 fold
Fold of Change KO/WT (Oatp1b2 [1]; plasma of untreated Oatp1b2-deficient (KO) vs wild-type (WT) mice, semi-quantitative, positive = higher in KO, n = 6 per group): 97.9
Mean value KO (Oatp1b2 [1]; plasma of untreated Oatp1b2-deficient mice, raw area counts rescaled to median = 1): 1.15
Mean value WT (Oatp1b2 [1]; plasma of untreated wild-type mice, raw area counts rescaled to median = 1): .0120
Plasma concentration of CDCA-24G in Oatp1b2(−/−) mice relative to wild type (Oatp1b2 [2]): 31 fold and > 30 fold
